Publication PMC4588393 (EBioMedicine, 2015)
Structures can show the parent of a compound that is named as a salt. Bridge positions count the residues as written; N and C are the ends. Square brackets hold non-standard residues; d marks the D form. Peptide text beside a SMILES is read from it. * marks the point of attachment. X1 = CC[C@H](C)CCCCC(=O)*; Dab = NCC[C@H](N)C(=O)O

Tests used:
S. Typhimurium 14028 = type: cell-based, Salmonella enterica Typhimurium
[1] = test system: TIVAR + S. Typhimurium 14028; parameters: species or system BALB/c mice; conditions: in vivo
[2] = in vivo; cited from earlier work
[3] = test system: TIVAR − S. Typhimurium var. 5 (04)-9639; parameters: species or system BALB/c mice; conditions: in vivo

SMILES | effect of pH and media composition on efficacy of antibiotic (S. Typhimurium 14028) | resistance linked to growth in LPM pH 5.5 medium (MIC ratio of LPM pH 5.5/pH 7.0 to MHB pH 5.5/pH 7.2) (S. Typhimurium 14028) [fold] | other results
CO/N=C(\C(=O)N[C@@H]1C(=O)N2C(C(=O)O)=C(CSC(=O)c3ccco3)CS[C@H]12)c1csc(N)n1 [Ceftiofur, ceftiofur] | unaffected |  | 
O=C(N[C@H](CO)[C@H](O)c1ccc([N+](=O)[O-])cc1)C(Cl)Cl [Chloramphenicol, chloramphenicol] | unaffected |  | 
O=C(O)c1cn(C2CC2)c2cc(N3CCNCC3)c(F)cc2c1=O [Ciprofloxacin, ciprofloxacin] |  |  | mouse survival post-infection [1]: at least 10 days
CC[C@H](C)CCCCC(=O)N[C@@H](CCN)C(=O)N[C@H](C(=O)N[C@@H](CCN)C(=O)N[C@H]1CCNC(=O)[C@H]([C@@H](C)O)NC(=O)[C@H](CCN)NC(=O)[C@H](CCN)NC(=O)[C@H](CC(C)C)NC(=O)[C@@H](CC(C)C)NC(=O)[C@H](CCN)NC1=O)[C@@H](C)O [Colistin sulfate, colistin sulfate] (X1-[Dab]T[Dab][Dab][Dab][dL]L[Dab][Dab]T; lactam 4-C (inferred); N-terminus assumed) |  | 256 | 
CC[C@H](C)CCCCC(=O)N[C@@H](CCN)C(=O)N[C@H](C(=O)N[C@@H](CCN)C(=O)N[C@H]1CCNC(=O)[C@H]([C@@H](C)O)NC(=O)[C@H](CCN)NC(=O)[C@H](CCN)NC(=O)[C@H](CC(C)C)NC(=O)[C@@H](Cc2ccccc2)NC(=O)[C@H](CCN)NC1=O)[C@@H](C)O [Polymyxin B, polymyxin B] (X1-[Dab]T[Dab][Dab][Dab][dF]L[Dab][Dab]T; lactam 4-C (inferred); N-terminus assumed) |  | 64 | time within which all treated mice died ([1]; mouse): ≤ 7 days; circulating PMB levels [2]: 0.5 to 2.5 mg/L; mouse survival post-infection [3]: at least 10 days
CN(C)[C@@H]1C(O)=C(C(N)=O)C(=O)[C@@]2(O)C(O)=C3C(=O)c4c(O)cccc4[C@@](C)(O)[C@H]3C[C@@H]12 [Tetracycline, tetracycline] | unaffected |  | 
COc1cc(Cc2cnc(N)nc2N)cc(OC)c1OC [Trimethoprim, trimethoprim] |  | 4 | 
